Experimental data taken from patent publication US20230181536A1, “ANTICANCER COMBINATION THERAPY WITH N-(1-ACRYLOYL-AZETIDIN-3-YL)-2-((1H-INDAZOL-3-YL)AMINO)METHYL)-1H-IMIDAZOLE-5-CARBOXAMIDE INHIBITOR OF KRAS-G12C” (TAIHO PHARMACEUTICAL CO., LTD., priority 2020, published 2023).

Molecular target: T1, KRAS G12C (Homo sapiens, UniProt P01116, G12C)
T1 construct: KRAS G12C (amino acid region: 1-169)
Test: Inhibitory activity on the KRAS G12C nucleotide (GDP-GTP) exchange reaction
Assay type: biochemical
Conditions: Bodipy FL GDP-bound KRAS G12C 25 nM; preincubation at 25° C. for 4 hours; SOS1 100 nM, GppNHp 1 μM, reaction for 30 minutes
How it was run: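 Bodipy FL-GDP-loaded KRAS G12C (aa 1-169, 25 nM) preincubated with compound 4 h at 25 °C in pH 7.5 Tris buffer, 5% DMSO; exchange started with SOS1 (aa 564-1049, 100 nM) and 1 μM GppNHp for 30 min. Fluorescence change (ex 485/em 520 nm) normalized to DMSO and no-GppNHp controls; IC50 calculated.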

T1 sequence (P01116 1-169 isoform P01116-2 G12C): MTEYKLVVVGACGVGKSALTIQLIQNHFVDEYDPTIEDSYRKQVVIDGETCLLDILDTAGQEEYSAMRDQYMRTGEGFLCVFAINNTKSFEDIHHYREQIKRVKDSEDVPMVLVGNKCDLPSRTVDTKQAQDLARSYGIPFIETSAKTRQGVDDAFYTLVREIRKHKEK

In order of rising IC50:
1. C=CC(=O)N1CC(NC(=O)c2c(C(F)F)nc(CNc3n[nH]c4cc(Cl)c(C(C)(C)C)cc34)n2C2CCN(C(C)=O)C2)C1 (stereo not shown) [Example 96, 1-(1-Acetylpyrrolidin-3-yl)-N-(1-acryloylazetidin-3-yl)-2-(((5-(tert-butyl)-6-chloro-1H-indazol-3-yl)amino)methyl)-4-(difluoromethyl)-1H-imidazole-5-carboxamide]  4 nM
2. C=CC(=O)N1CC(NC(=O)c2c(Cl)nc(CNc3n[nH]c4cc(Cl)c(C(C)(C)C)cc34)n2[C@H]2CCOC2)C1 [Example 97, (S)-N-(1-acryloylazetidin-3-yl)-2-(((5-(tert-butyl)-6-chloro-1H-indazol-3-yl)amino)methyl)-4-chloro-1-(tetrahydrofuran-3-yl)-1H-imidazole-5-carboxamide]  4 nM
3. C=CC(=O)N1CC(NC(=O)c2c(Cl)nc(CNc3n[nH]c4cc(Cl)c(C(C)(C)C)cc34)n2C2CN(C(C)C)C2)C1 [Example 107, N-(1-acryloylazetidin-3-yl)-2-(((5-(tert-butyl)-6-chloro-1H-indazol-3-yl)amino)methyl)-4-chloro-1-(1-isopropylazetidin-3-yl)-1H-imidazole-5-carboxamide]  4 nM
4. C=CC(=O)N1CC(NC(=O)c2c(Cl)nc(CNc3n[nH]c4cc(Cl)c(C(C)(C)C)cc34)n2[C@@H]2CCOC2)C1 [Example 102, (R)-N-(1-acryloylazetidin-3-yl)-2-(((5-(tert-butyl)-6-chloro-1H-indazol-3-yl)amino)methyl)-4-chloro-1-(tetrahydrofuran-3-yl)-1H-imidazole-5-carboxamide]  5 nM
5. C=CC(=O)N1CC(NC(=O)c2c(Cl)nc(CNc3n[nH]c4cc(Cl)c(C(C)(C)C)cc34)n2C2CCN(C)CC2)C1 [Example 103, N-(1-acryloylazetidin-3-yl)-2-(((5-(tert-butyl)-6-chloro-1H-indazol-3-yl)amino)methyl)-4-chloro-1-(1-methylpiperidin-4-yl)-1H-imidazole-5-carboxamide]  5 nM
6. C=CC(=O)N1CC(NC(=O)c2c(Cl)nc(CNc3n[nH]c4cc(Cl)c(C(C)(C)C)cc34)n2C2CC=CC2)C1 [Example 98, N-(1-acryloylazetidin-3-yl)-2-(((5-(tert-butyl)-6-chloro-1H-indazol-3-yl)amino)methyl)-4-chloro-1-(cyclopent-3-en-1-yl)-1H-imidazole-5-carboxamide]  7 nM
7. C=CC(=O)N1CC(NC(=O)c2c(Cl)nc(CNc3n[nH]c4cc(Cl)c(C(C)(C)C)cc34)n2[C@@H]2C[C@@H](O)[C@@H](O)C2)C1 [Example 99]  7 nM
8. C=CC(=O)N1CC(NC(=O)c2c(Cl)nc(CNc3n[nH]c4cc(Cl)c(C(C)(C)C)cc34)n2C2CCOCC2)C1 [Example 101, N-(1-acryloylazetidin-3-yl)-2-(((5-(tert-butyl)-6-chloro-1H-indazol-3-yl)amino)methyl)-4-chloro-1-(tetrahydro-2H-pyran-4-yl)-1H-imidazole-5-carboxamide]  7 nM
9. C=CC(=O)N1CC(NC(=O)c2c(Cl)nc(CNc3n[nH]c4cc(Cl)c(C(C)(C)C)cc34)n2[C@@H]2CCN(C(C)C)C2)C1 [Example 114, (R)-N-(1-acryloylazetidin-3-yl)-2-(((5-(tert-butyl)-6-chloro-1H-indazol-3-yl)amino)methyl)-4-chloro-1-(1-isopropylpyrrolidin-3-yl)-1H-imidazole-5-carboxamide]  7 nM
10. C=CC(=O)N1CC(NC(=O)c2c(Cl)nc(CNc3n[nH]c4cc(Cl)c(C(C)(C)C)cc34)n2C2CCCC2)C1 [Example 105, N-(1-acryloylazetidin-3-yl)-2-(((5-(tert-butyl)-6-chloro-1H-indazol-3-yl)amino)methyl)-4-chloro-1-cyclopentyl-1H-imidazole-5-carboxamide]  8 nM
11. C=CC(=O)N1CC(NC(=O)c2c(Cl)nc(CNc3n[nH]c4cc(Cl)c(C(C)(C)C)cc34)n2C2CN(C(=O)OC(C)(C)C)C2)C1 [Example 106, Tert-butyl 3-(5-((1-acryloylazetidin-3-yl)carbamoyl)-2-(((5-(tert-butyl)-6-chloro-1H-indazol-3-yl)amino)methyl)-4-chloro-1H-imidazol-1-yl)azetidine-1-carboxylate]  8 nM
12. C=CC(=O)N1CC(NC(=O)c2c(Cl)nc(CNc3n[nH]c4cc(Cl)c(C(C)(C)C)cc34)n2C2CCCOC2)C1 (stereo not shown) [Example 104, N-(1-acryloylazetidin-3-yl)-2-(((5-(tert-butyl)-6-chloro-1H-indazol-3-yl)amino)methyl)-4-chloro-1-(tetrahydro-2H-pyran-3-yl)-1H-imidazole-5-carboxamide]  9 nM
13. C=CC(=O)N1CC(NC(=O)c2c(Cl)nc(CNc3n[nH]c4cc(Cl)c(C(C)(C)C)cc34)n2C2CN(C(C)=O)C2)C1 [Example 108, 1-(1-acetylazetidin-3-yl)-N-(1-acryloylazetidin-3-yl)-2-(((5-(tert-butyl)-6-chloro-1H-indazol-3-yl)amino)methyl)-4-chloro-1H-imidazole-5-carboxamide]  9 nM
14. C=CC(=O)N1CC(NC(=O)c2c(Cl)nc(CNc3n[nH]c4cc(Cl)c(C(C)(C)C)cc34)n2CC2CCCC2)C1 [Example 110, N-(1-acryloylazetidin-3-yl)-2-(((5-(tert-butyl)-6-chloro-1H-indazol-3-yl)amino)methyl)-4-chloro-1-(cyclopentylmethyl)-1H-imidazole-5-carboxamide]  9 nM
15. C=CC(=O)N1CC(NC(=O)c2c(Cl)nc(CNc3n[nH]c4cc(Cl)c(C(C)(C)C)cc34)n2CC(F)F)C1 [Example 100, N-(1-acryloylazetidin-3-yl)-2-(((5-(tert-butyl)-6-chloro-1H-indazol-3-yl)amino)methyl)-4-chloro-1-(2,2-difluoroethyl)-1H-imidazole-5-carboxamide]  14 nM
16. C=CC(=O)N1CC(NC(=O)c2c(Cl)nc(CNc3n[nH]c4cc(Cl)c(C(C)(C)C)cc34)n2[C@H]2C[C@H](C)CC[C@H]2C(C)C)C1 [Example 111, N-(1-acryloylazetidin-3-yl)-2-(((5-(tert-butyl)-6-chloro-1H-indazol-3-yl)amino)methyl)-4-chloro-1-((1S,2S,5R)-2-isopropyl-5-methylcyclohexyl)-JH-imidazole-5-carboxamide]  15 nM
17. C=CC(=O)N1CC(NC(=O)c2c(Cl)nc(CNc3n[nH]c4cc(Cl)c(C(C)(C)C)cc34)n2C2CCCCC2)C1 [Example 109, N-(1-acryloylazetidin-3-yl)-2-(((5-(tert-butyl)-6-chloro-1H-indazol-3-yl)amino)methyl)-4-chloro-1-cyclohexyl-1H-imidazole-5-carboxamide]  23 nM
18. C=CC(=O)N1CC(NC(=O)c2c(C(F)F)nc(CNc3n[nH]c4cc(Cl)c(C(C)(C)C)cc34)n2CC2CCCN2C(C)C)C1 (stereo not shown) [Example 95, N-(1-acryloylazetidin-3-yl)-2-(((5-(tert-butyl)-6-chloro-1H-indazol-3-yl)amino)methyl)-4-(difluoromethyl)-1-((1-isopropylpyrrolidine-2-yl)methyl)-1H-imidazole-5-carboxamide]  44 nM
19. C=CC(=O)N1CC(NC(=O)c2c(Cl)nc(CNc3n[nH]c4cc(Cl)c(C(C)(C)C)cc34)n2-c2ccccn2)C1 [Example 94, N-(1-acryloylazetidin-3-yl)-2-(((5-(tert-butyl)-6-chloro-1H-indazol-3-yl)amino)methyl)-4-chloro-1-(pyridin-2-yl)-1H-imidazole-5-carboxamide]  118 nM
